Data from patent US10080779B2, “Method for increasing the expression of anti-microbial peptides by keratinocytes comprising administering a composition comprising IL-17, TNF-alpha and OSM” (Universite D'Angers, priority 2004, dated 2018).

What was measured:
NHEK [1] = test: RT-QPCR of antimicrobial peptide and chemokine genes in NHEK; assay type: cell-based, human; conditions: 10 ng/ml, 24 h
Method: (§1) NHEK were obtained as previously described, from surgical samples of healthy breast skin (Boniface et al, 2005). NHEK were cultured to 80% of confluence and then starved for 24 h in Keratinocyte SFM without addition of growth factors before stimulation. Cells were stimulated with or without 10 ng/ml of recombinant IL-17A, OSM, TNFα, IL-22 and IL-1α alone or in combination (R&D systems Europe, Lille, France) during 24 h for mRNA quantification or 48 h to 96 h for protein quantification.
NHEK and skin total RNA were isolated and reverse-transcribed as previously described (Boniface et al, 2005). Quantitative real time PCR was carried using the LightCycler-FastStart DNA Master SYBR® Green I kit on LightCycler 480 (Roche Diagnostics, Meylan, France). The reaction components were 1×DNA Master Mix, and 0.5 μM of HPLC purified sense and anti-sense oligonucleotides purchased from Eurogentec (Eurogentec France, Angers, France), designed using Primer3 software. Samples were normalized to three independent control housekeeping genes (G3PDH, RPL13A or ACTB for human samples and G3PDH, HMBS or B2m for mouse samples) and reported according to the ΔΔCT method as RNA fold increase: 2^ΔΔCT=2^ΔCT sample−ΔCT eference. For comparison of normal skin and psoriatic skin the REST 2008 software was used (Pfaffl et al., 2002).

[2] = test system: normal human keratinocytes (NHEK); test: Cytokine cocktails on S100A7, hBD2/4, KRT10 mRNA in NHEK (RT-Q-PCR); assay type: cell-based; conditions: NHEK 24 hrs, 1 ng/ml each
Method: Quantitative real time PCR was carried out using the LightCycler-FastStart DNA Master^PLUS SYBR Green I kit (Roche, Mannheim, Germany). The reaction components were 1× FastStart DNA Master^PLUS SYBR Green I and 0.5 μM of forward and reverse primers for S100A7 (forward 5′-[…]-3′ (SEQ ID No: 9) and reverse 5′-[…]-3′ (SEQ ID No: 10)), S100A8 (Pattyn, Speleman et al. 2003), S100A9 (forward 5′-[…]-3′ (SEQ ID No: 11) and reverse 5′-[…]-3′ (SEQ ID No: 12)), hBD2/4 (forward 5′-[…]-3′ (SEQ ID No: 13) and reverse 5′-[…]-3′ (SEQ ID No: 14)), KRT10 (forward 5′-[…]-3′ (SEQ ID No: 15) and reverse 5′-[…]-3′ (SEQ ID No: 16)), and hydroxymethyl-bilane synthase (HMBS) as a housekeeping gene (Vandesompele, De Preter et al. 2002). After cDNA fluorescent quantification using propidium iodide, 250 ng, 25 ng and 2.5 ng of cDNA were added as PCR template in the LightCycler glass capillaries. The cycling conditions comprised a 10 min polymerase activation at 95° C. and 50 cycles at 95° C. for 10 s, 64° C. for 5 s and 72° C. for 18 s with a single fluorescence measurement. […] A mathematical model was used to determine the relative quantification of target genes compared to HMBS reference gene (Pfaffl 2001).
To that aim, confluent normal human keratinocytes (NHEK) were treated for 24 hrs with the indicated mix of cytokines (each cytokine at 1 ng/ml final concentration). Total RNA was extracted, reverse-transcribed and the expression of the selected genes was analyzed by real-time PCR as described.

NHEK [3] = test: Cytokine measurement by ELISA in NHEK culture supernatants; assay type: cell-based, human; conditions: 96 h; for Redundancy with the family member it replaces in M5 (BD2 and CXCL8 production): IL-1β for IL-1α, TNFβ for TNFα, IL-17F for IL-17A, IL-24 for IL-22, IL-6 for OSM
Method: as §1
Levels of BD2, BD3 and CXCL8 were determined using Human ELISA development kit (Peprotech), and CXCL1 and CXCL5 with DuoSet reagents (R&D Systems Europe).

RHE [4] = test: RHE histology and immunohistochemistry (Example 14); assay type: cell-based, human; conditions: 72 h; for CK10, LOR and FLG expression (immunohistology) / IVL expression (immunohistology) / S100A7 expression (immunohistology): RHE; for CK10, LOR and FLG expression (immunohistology) / IVL expression (immunohistology) / S100A7 expression (immunohistology) / RHE histology: single cytokines
Method: (§2) Normal human epidermal keratinocytes (NHEK) were obtained as previously described, from surgical samples of healthy breast skin (Boniface et al, 2005). NHEK were cultured to 80% of confluence allowing the expression of a large panel of keratinocyte differentiation markers, and then starved for 24 h in Keratinocyte SFM containing 0.03 mM Ca^2+ (Invitrogen Life Technologies, Cergy Pontoise, France) before stimulation. Confluent differentiated cells were stimulated with or without recombinant IL-17A, OSM, TNFα, IL-22 and IL-1α alone at maximum effective concentrations (reported previously around 10 ng/ml (Boniface et al, 2005 and Boniface et al, 2007)) or in combination (R&D systems Europe, Lille, France) during 2 h to 72 h for mRNA quantification. RHE were generated on polycarbonate culture inserts, from surgical samples of paediatric foreskins as previously described (Guenou et al., 2009). RHE were stimulated with or without recombinant IL-17A, OSM, TNFα, IL-22 and IL-1α alone or in combination, with or without a Janus protein Tyrosine Kinases (JAKs) inhibitor 10 μM (Calbiochem, 420099), during 24 h for mRNA quantification or during 72 h for immunohistological analysis.
RHE were washed and fixed with formaldehyde solution. Fixed tissues were dehydrated with increasing ethanol concentrations, embedded in paraffin and sections were carried out using a microtome (4 μm thickness). The sections were deparaffinised, washed and incubated with hydrogen peroxide. The sections were incubated with anti-CK10 (SantaCruz, SC-23877), anti-LOR (Eurogentec, PRB-145P), anti-FLG (SantaCruz, SC-66192), anti-IVL (Biomedical Technologies, BT-601), anti-S100A7 (Clinisciences, IMG-409A) and then detected using a biotin-conjugated secondary antibody (Vector, RTU vectastain universal quick kit, PK-7800). After peroxidase-conjugated streptavidine (Vector, RTU vectastain universal quick kit, PK-7800) and peroxidase substrate addition (Dako, Substrat hyper-sensible AEC+), nuclei were counter-stained using a solution of hematoxylin. Sections were observed using a NIKON E400 microscope. The images were captured using a NIKON DS-Ril and processed with NIS-Elements 3.10 software.

NHEK [5] = test: cDNA macroarrays analysis of 36 cytokines on 154 genes in NHEK; assay type: cell-based, human; conditions: 10 ng/ml, 24 h
Method: The comparison of the effects of 36 different cytokines on the expression of 154 genes of potential interest for skin physiology was performed using home-made cDNA macroarrays analysis. After cytokine stimulation, total RNA was extracted using TRIzoI® Reagent (Invitrogen life Technologies) and conventional 33P-cDNA target synthesis and hybridization were performed (Boniface et al, 2007). Genes were considered regulated if expression levels differed more than 3-fold relative to untreated control and 3-fold relative to mean background noise.

RHE [6] = test: KDM mRNA in reconstituted human epidermis (RT-PCR); assay type: cell-based; conditions: 24 h
Method: as §2
(§3) NHEK, RHE and murine skin total RNA were isolated using NucleoSpin® RNA II kit (Macherey-Nagel, Hoerdt, France) and reverse-transcribed with SuperScript® II Reverse Transcriptase (Invitrogen Life Technologies) according to the manufacturer's instructions. Quantitative real time PCR was carried out using the LightCycler-FastStart DNA Master SYBR® Green I kit on LightCycler 480 (Roche Diagnostics, Meylan, France). The reaction components were 1×DNA Master Mix, and 0.5 μM of HPLC purified sense and anti-sense oligonucleotides purchased from Eurogentec (Eurogentec France, Angers, France), designed using Primer3 software. The stability of the housekeeping gene expression has been assessed by using GeNorm algorithm. […] Thus samples were normalized to G3PDH housekeeping gene and reported according to the ΔΔCT method as RNA fold increase: 2^ΔΔCT=2^ΔCT sample−ΔCT reference.

NHEK [7] = test: Keratinocyte differentiation marker (KDM) mRNA in NHEK (RT-PCR); assay type: cell-based, human; conditions: 24 h; for mRNA expression of CK1, DSG1, DSC1, FLG, CLSP, LOR and FABPS: single cytokines 10 ng/ml
Method: as §2, §3

Molecule: IL-22: recombinant cytokine IL-22
- Number of the 21 chemokine and antimicrobial peptide genes upregulated (NHEK [1]): 14
- Effect of depleting the cytokine from the mix on activity of the complete cocktail [2]: did not significantly decrease the activity
- BD3 production (NHEK [3]; 10 ng/ml): significant increase
- CXCL1, CXCL5, CXCL8 production, single cytokines (NHEK [3]; 10 ng/ml): discrete effect
- CK10, LOR and FLG expression (immunohistology) (RHE [4]): decreases expression of CK10, LOR and FLG
- IVL expression (immunohistology) (RHE [4]): strongly
- S100A7 expression (immunohistology) (RHE [4]): strongly induced
- RHE histology (RHE [4]): significant keratinocyte hyperplasia
- Number of genes (of 154) whose expression is modified with at least a three fold increase or decrease (NHEK [5]): at least five genes
- Expression of KDM mRNA (CK10, CK1, LOR, FLG) (RHE [6]): most active cytokines
- S100A7 mRNA expression (RHE [6]): strongly induced
- Number of KDM whose control mRNA expression is partially restored on removal of the cytokine from M5 (NHEK [7]): 4 KDM
- mRNA expression of CK1, DSG1, DSC1, FLG, CLSP, LOR and FABPS (NHEK [7]): downregulate mRNA expression

Molecule: IL-6: cytokine of the same family as OSM
- Redundancy with the family member it replaces in M5 (BD2 and CXCL8 production) (NHEK [3]): weak redundancy
- Number of genes (of 154) whose expression is modified with at least a three fold increase or decrease (NHEK [5]): at least five genes

Molecule: IL-1β: cytokine of the same family as IL-1α
- Redundancy with the family member it replaces in M5 (BD2 and CXCL8 production) (NHEK [3]): total redundancy
- Number of genes (of 154) whose expression is modified with at least a three fold increase or decrease (NHEK [5]): at least five genes

Molecule: TNFα
- Number of the 21 chemokine and antimicrobial peptide genes upregulated (NHEK [1]): 20
- Decrease of the activity of the 5 cytokines reference mix on omission of the cytokine, S100A7 [2]: 3 fold
- Decrease of the activity of the 5 cytokines reference mix on omission of the cytokine, hBD2/4 [2]: 5.6 fold
- Contribution to M5 activity on BD2 and CXCL8 production (successive removal) (NHEK [3]): more critical to the activity of the M5 combination
- CK10, LOR and FLG expression (immunohistology) (RHE [4]): did not exhibit any activity
- IVL expression (immunohistology) (RHE [4]): discreetly induced
- S100A7 expression (immunohistology) (RHE [4]): very slightly
- RHE histology (RHE [4]): does not modify RHE histology
- Number of genes (of 154) whose expression is modified with at least a three fold increase or decrease (NHEK [5]): at least five genes
- Rank as contributor to keratinocyte differentiation inhibition (removal from M5) (NHEK [7]): most potent cytokines for keratinocyte differentiation inhibition
- mRNA expression of CK1, DSG1, DSC1, FLG, CLSP, LOR and FABPS (NHEK [7]): downregulate mRNA expression

Molecule: CC(C)(C)c1nc2c3ccc(F)cc3c3c(=O)[nH]ccc3c2[nH]1 [JAKs inhibitor, reference compound]
- Effect on M5-induced RHE disruption and hyperplasia (RHE [4]; JAKs inhibitor 10 μM with M5 (3 ng/ml)): protects the integrity of the RHE and blocked the epidermal hyperplasia

B1: TNFβ: cytokine of the same family as TNFα (protein, UniProt P01374 35-205, looked up)
Lymphotoxin-alpha: LPGVGLTPSAAQTARQHPKMHLAHSTLKPAAHLIGDPSKQNSLLWRANTDRAFLQDGFSLSNNSLLVPTSGIYFVYSQVVFSGKAYSPKATSSPLYLAHEVQLFSSQYPFHVPLLSSQKMVYPGLQEPWLHSMYHGAAFQLTQGDQLSTHTDGIPHLVLSPSTVFFGAFAL
- Redundancy with the family member it replaces in M5 (BD2 and CXCL8 production) (NHEK [3]): strong redundancy

B2: INFγ: gamma Interferon (protein, UniProt P01579 24-161, looked up)
Interferon gamma: QDPYVKEAENLKKYFNAGHSDVADNGTLFLGILKNWKEESDRKIMQSQIVSFYFKLFKNFKDDQSIQKSVETIKEDMNVKFFNSNKKKRDDFEKLTNYSVTDLNVQRKAIHELIQVMAELSPAAKTGKRKRSQMLFRG
- Effect of depleting the cytokine from the mix on activity of the complete cocktail [2]: did not significantly decrease the activity

B3: IL-24: cytokine of the same family as IL-22 (protein, UniProt Q13007 52-206, looked up)
Interleukin-24: QEFHFGPCQVKGVVPQKLWEAFWAVKDTMQAQDNITSARLLQQEVLQNVSDAESCYLVHTLLEFYLKTVFKNYHNRTVEVRTLKSFSTLANNFVLIVSQLQPSQENEMFSIRDSAHRRFLLFRRAFKQLDVEAALTKALGEVDILLTWMQKFYKL
- Redundancy with the family member it replaces in M5 (BD2 and CXCL8 production) (NHEK [3]): limited redundancy
- Number of genes (of 154) whose expression is modified with at least a three fold increase or decrease (NHEK [5]): at least five genes

B4: IL-17F: cytokine of the same family as IL-17A (protein, UniProt Q96PD4 31-163, looked up)
Interleukin-17F: RKIPKVGHTFFQKPESCPPVPGGSMKLDIGIINENQRVSMSRNIESRSTSPWNYTVTWDPNRYPSEVVQAQCRNLGCINAQGKEDISMNSVPIQQETLVVRRKHQGCSVSFQLEKVLVTVGCTCVTPVIHHVQ
- Redundancy with the family member it replaces in M5 (BD2 and CXCL8 production) (NHEK [3]): limited redundancy
